Measured values reported in ChEMBL document CHEMBL4393680, “Design, synthesis and biological evaluation of novel thioquinazolinone-based 2-aminobenzamide derivatives as potent histone deacetylase (HDAC) inhibitors” (Eur J Med Chem, 2019).

How the values were obtained:
[1] = test system: HeLa; experiment: Antiproliferative activity against human HeLa cells assessed as reduction in cell growth at 8 uM incubated for 72 hrs by CCK-8 assay relative to control; format: functional
[2] = test system: SMMC-7721; experiment: Cell cycle arrest in human SMMC7721 cells assessed as accumulation at G2/M phase at 1 uM incubated for 48 hrs by propidium iodide staining based flow cytometry (Rvb=16.17%); format: functional
[3] = molecular target: Histone deacetylase 1 (Homo sapiens, UniProt Q13547); experiment: Inhibition of human recombinant His-tagged HDAC1 (482 residues) expressed in baculovirus infected insect cells using FLUOR DE LYS SIRT1 as substrate incubated for 10 mins followed by substrate addition and measured after 30 mins by fluorescence method
[4] = test system: SMMC-7721; experiment: Cell cycle arrest in human SMMC7721 cells assessed as accumulation at S phase at 0.25 uM incubated for 48 hrs by propidium iodide staining based flow cytometry (Rvb=6.83%); format: functional
[5] = test system: SMMC-7721; experiment: Antiproliferative activity against human SMMC7721 cells assessed as reduction in cell growth at 2 uM incubated for 72 hrs by CCK-8 assay relative to control; format: functional; details: SMMC-7721, 72 h
[6] = molecular target: T1, Protein deacetylase HDAC6 (Homo sapiens, UniProt Q9UBN7); experiment: Inhibition of human recombinant His-tagged HDAC6 expressed in baculovirus infected insect cells using FLUOR DE LYS SIRT1 as substrate preincubated for 10 mins followed by substrate addition and measured after 30 mins by fluorescence method
T1 sequence (Q9UBN7 whole entry): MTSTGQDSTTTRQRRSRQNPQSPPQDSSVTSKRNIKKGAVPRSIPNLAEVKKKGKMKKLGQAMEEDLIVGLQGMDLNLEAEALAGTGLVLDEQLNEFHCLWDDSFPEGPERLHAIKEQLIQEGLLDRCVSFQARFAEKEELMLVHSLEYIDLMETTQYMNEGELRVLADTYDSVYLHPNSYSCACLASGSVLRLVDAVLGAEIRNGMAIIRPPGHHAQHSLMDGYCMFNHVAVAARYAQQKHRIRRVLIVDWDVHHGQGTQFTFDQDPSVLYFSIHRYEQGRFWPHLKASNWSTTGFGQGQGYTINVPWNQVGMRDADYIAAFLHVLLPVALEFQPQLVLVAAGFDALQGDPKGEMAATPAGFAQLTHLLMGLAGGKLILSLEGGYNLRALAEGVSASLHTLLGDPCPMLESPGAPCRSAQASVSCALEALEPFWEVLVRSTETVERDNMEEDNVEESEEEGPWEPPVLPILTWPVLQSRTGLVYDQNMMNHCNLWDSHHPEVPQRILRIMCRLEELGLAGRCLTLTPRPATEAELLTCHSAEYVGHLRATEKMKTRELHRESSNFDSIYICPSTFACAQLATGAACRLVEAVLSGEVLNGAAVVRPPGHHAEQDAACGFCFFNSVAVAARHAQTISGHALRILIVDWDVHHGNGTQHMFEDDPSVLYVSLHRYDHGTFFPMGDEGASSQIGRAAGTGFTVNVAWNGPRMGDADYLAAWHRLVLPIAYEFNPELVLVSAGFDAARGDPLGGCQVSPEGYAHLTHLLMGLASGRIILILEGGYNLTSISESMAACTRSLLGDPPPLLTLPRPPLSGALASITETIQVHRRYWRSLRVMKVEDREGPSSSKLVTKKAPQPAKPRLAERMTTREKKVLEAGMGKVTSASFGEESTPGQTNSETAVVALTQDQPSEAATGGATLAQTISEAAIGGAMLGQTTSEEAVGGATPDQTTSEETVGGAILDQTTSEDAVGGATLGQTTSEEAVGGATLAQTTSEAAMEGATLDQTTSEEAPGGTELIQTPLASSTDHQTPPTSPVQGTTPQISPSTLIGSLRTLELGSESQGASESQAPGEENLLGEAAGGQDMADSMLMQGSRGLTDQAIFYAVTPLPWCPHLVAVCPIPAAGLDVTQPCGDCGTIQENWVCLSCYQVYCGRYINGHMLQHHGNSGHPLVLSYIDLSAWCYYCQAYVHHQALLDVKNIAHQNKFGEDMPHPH

[7] = test system: SMMC-7721; experiment: Cell cycle arrest in human SMMC7721 cells assessed as accumulation at G2/M phase at 4 uM incubated for 48 hrs by propidium iodide staining based flow cytometry (Rvb=16.17%); format: functional
[8] = molecular target: Histone deacetylase 2 (Homo sapiens, UniProt Q92769); experiment: Inhibition of human recombinant His-tagged HDAC2 ([…]) expressed in baculovirus infected insect cells using FLUOR DE LYS Green as substrate preincubated for 10 mins followed by substrate addition and measured after 30 mins by fluorescence method
[9] = Toxicity in BALB/C mouse xenografted with human A549 cells assessed as reduction in body weight at 25 mg/kg, ip bid for 21 days measured at 3 days interval during compound dosing; format: organism-based; details: in vivo
[10] = test system: SMMC-7721; experiment: Cell cycle arrest in human SMMC7721 cells assessed as accumulation at G0/G1 phase at 0.25 uM incubated for 48 hrs by propidium iodide staining based flow cytometry (Rvb=77%); format: functional
[11] = test system: SMMC-7721; experiment: Antiproliferative activity against human SMMC7721 cells assessed as reduction in cell growth incubated for 72 hrs by CCK-8 assay; format: functional, cell-based; details: SMMC-7721, 72 h
[12] = test system: SMMC-7721; experiment: Induction of apoptosis in human SMMC7721 cells assessed as late apoptotic cells at 4 uM incubated for 48 hrs by Annexin-V-FITC/propidium iodide staining based flow cytometry (Rvb=1.73%); format: functional
[13] = test system: SMMC-7721; experiment: Induction of apoptosis in human SMMC7721 cells assessed as viable cells at 4 uM incubated for 48 hrs by Annexin-V-FITC/propidium iodide staining based flow cytometry (Rvb=93.5%); format: functional; details: SMMC-7721, 48 h, read-out: Activity
[14] = test system: HCT-116; experiment: Antiproliferative activity against human HCT116 cells assessed as reduction in cell growth incubated for 72 hrs by CCK-8 assay; format: functional, cell-based; details: HCT-116, 72 h
[15] = test system: A549; experiment: Antiproliferative activity against human A549 cells assessed as reduction in cell growth at 2 uM incubated for 72 hrs by CCK-8 assay relative to control; format: functional; details: A549, 72 h
[16] = test system: A-375; experiment: Antiproliferative activity against human A375 cells assessed as reduction in cell growth at 8 uM incubated for 72 hrs by CCK-8 assay relative to control; format: functional; details: A-375, 72 h
[17] = test system: SMMC-7721; experiment: Induction of apoptosis in human SMMC7721 cells assessed as early apoptotic cells at 4 uM incubated for 48 hrs by Annexin-V-FITC/propidium iodide staining based flow cytometry (Rvb=2.88%); format: functional
[18] = test system: SMMC-7721; experiment: Induction of apoptosis in human SMMC7721 cells assessed as viable cells at 1 uM incubated for 48 hrs by Annexin-V-FITC/propidium iodide staining based flow cytometry (Rvb=93.5%); format: functional; details: SMMC-7721, 48 h, read-out: Activity
[19] = test system: A549; experiment: Antitumor activity against human A549 cells xenografted in BALB/C mouse assessed as tumor growth inhibition at 25 mg/kg, ip bid for 21 days measured at 3 days interval during compound dosing relative to control; format: functional; details: read-out: TGI
[20] = molecular target: Histone deacetylase; experiment: Inhibition of HDAC in human HeLa cell nuclear extract using fluor-de-lys-green as substrate preincubated for 10 mins followed by substrate addition and measured after 30 mins by fluorescence assay; format: cell-based

Chain of Histone deacetylase 2 (Q92769 whole entry): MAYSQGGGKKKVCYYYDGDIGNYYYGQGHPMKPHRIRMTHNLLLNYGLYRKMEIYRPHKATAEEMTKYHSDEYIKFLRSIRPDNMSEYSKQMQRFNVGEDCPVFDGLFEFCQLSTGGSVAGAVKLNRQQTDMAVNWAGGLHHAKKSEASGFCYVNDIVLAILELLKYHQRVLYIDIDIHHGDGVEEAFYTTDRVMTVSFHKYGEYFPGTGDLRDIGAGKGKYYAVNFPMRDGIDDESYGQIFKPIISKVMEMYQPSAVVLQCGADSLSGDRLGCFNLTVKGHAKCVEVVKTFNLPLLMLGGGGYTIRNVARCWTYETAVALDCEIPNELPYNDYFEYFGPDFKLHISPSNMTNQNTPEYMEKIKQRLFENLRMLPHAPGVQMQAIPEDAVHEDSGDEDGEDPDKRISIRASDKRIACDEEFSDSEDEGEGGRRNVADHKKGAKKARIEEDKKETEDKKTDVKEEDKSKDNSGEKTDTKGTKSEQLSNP
Chain of Histone deacetylase 1 (Q13547 whole entry): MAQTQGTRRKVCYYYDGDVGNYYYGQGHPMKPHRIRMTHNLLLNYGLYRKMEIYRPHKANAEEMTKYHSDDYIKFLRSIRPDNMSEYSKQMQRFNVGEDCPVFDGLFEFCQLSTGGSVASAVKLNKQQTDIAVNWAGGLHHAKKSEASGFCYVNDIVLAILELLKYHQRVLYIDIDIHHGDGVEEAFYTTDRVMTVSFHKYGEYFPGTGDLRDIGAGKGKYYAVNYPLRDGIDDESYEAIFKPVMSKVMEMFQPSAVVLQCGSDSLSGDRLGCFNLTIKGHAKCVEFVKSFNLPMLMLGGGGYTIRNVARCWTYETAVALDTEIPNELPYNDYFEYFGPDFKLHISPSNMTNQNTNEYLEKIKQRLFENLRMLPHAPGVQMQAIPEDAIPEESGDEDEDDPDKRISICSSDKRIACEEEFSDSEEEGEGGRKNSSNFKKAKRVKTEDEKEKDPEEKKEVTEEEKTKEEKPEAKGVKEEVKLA

Row | IC50 [3] | IC50 [6] | IC50 [8] | IC50 [11] | IC50 [14] | IC50 [20] | SMILES | inhibition at 8 µM [1] | Activity [2] | Activity [4] | inhibition at 2 µM [5] | Activity [7] | Activity [9] | Activity [10] | Activity [12] | viability at 4 µM [13] | inhibition at 2 µM [15] | inhibition at 8 µM [16] | Activity [17] | viability at 1 µM [18] | inhibition in vivo at 25 mg/kg [19]
1 | 10 nM | > 40 µM | 160 nM | 30 nM | 750 nM | 0.99 µM | COc1ccc2c(=O)n(C)c(SCc3ccc(C(=O)Nc4ccccc4N)cc3)nc2c1 | 87% | 22.56% | 22.23% | 68.8% | 31.22% | Non-Toxic | 67.11% | 54.8% | 21.7% | 38% | 89.4% | 13% | 32.3% | 62.5%
2 | 290 nM | > 40 µM | 530 nM | 5580 nM | 1220 nM | 4.94 µM | Cn1c(SCc2ccc(C(=O)Nc3ccccc3N)cc2)nc2cc(Br)ccc2c1=O | 72.8% | 25.37% | 15.53% | 35.6% | 19.19% | – | 65.59% | 51.4% | 26.9% | 37.5% | 72.9% | 6.61% | 49.5% | –
3 | 100 nM | > 40 µM | 180 nM | 60 nM | 1430 nM | – | CCn1c(SCc2ccc(/C=C/C(=O)Nc3ccccc3N)cc2)nc2cc(OC)ccc2c1=O | 70.8% | 33.16% | 20.75% | 56.8% | 17.68% | – | 61.58% | 38.2% | 41.3% | 18.6% | 89.5% | 10.5% | 45.8% | –
4 | 380 nM | > 40 µM | 610 nM | 2160 nM | 2380 nM | 0.83 µM | COc1ccc2c(=O)n(-c3ccccc3Cl)c(SCc3ccc(C(=O)Nc4ccccc4N)cc3)nc2c1 | 82.7% | 37.07% | 19.96% | 50.4% | 27.3% | – | 48.75% | 20.4% | 65.8% | 52.5% | 78.7% | 5.54% | 65.6% | –
